According to ChEMBL document CHEMBL1201862, “PubChem BioAssay data set” (2004):
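These data come from cells grown in 96-well plates and exposed to compound for 48 hours at five concentrations. GI50 = concentration required for 50% inhibition of growth.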 Calls of active or inactive are those of the source. Cut-off read from the data, not from the text of the source: active = GI50 up to about 1.1 µM and inactive = higher.

Assays:
Assay in all cases: NCI-60 cell line screen, 48 h
[1] = test system: HOP-92
[2] = test system: UACC-62
[3] = test system: OVCAR-4
[4] = test system: UACC-257
[5] = test system: UO-31
[6] = test system: SK-OV-3
[7] = test system: EKVX
[8] = test system: HOP-62
[9] = test system: SF-268
[10] = test system: HT-29
[11] = test system: A549
[12] = test system: SK-MEL-5
[13] = test system: RPMI-8226
[14] = test system: SF-295
[15] = test system: DMS-273
[16] = test system: K562
[17] = test system: HL-60

Measured: GI50

CC(=O)OC1COC(n2c(=S)n(-c3ccc(C)cc3)c(=O)c3ccccc32)C(OC(C)=O)C1OC(C)=O (configuration not stated)
inactive: [1] 45.8 µM | [2] > 100 µM | [3] > 100 µM | [4] > 100 µM | [5] > 100 µM | [6] > 100 µM | [7] > 100 µM | [8] > 100 µM | [9] > 100 µM | [10] > 100 µM | [11] > 100 µM | [12] > 100 µM | [13] 47.5 µM | [14] 85.5 µM | [15] > 100 µM

O=S(=O)(N/N=C/c1cccc(/C=N/NS(=O)(=O)c2ccccc2)c1)c1ccccc1
inactive: [1] 38.9 µM | [2] 85.9 µM | [3] 77.8 µM | [4] 39.3 µM | [5] 46.7 µM | [6] > 100 µM | [16] 60.4 µM | [7] 77.6 µM | [8] > 100 µM | [9] > 100 µM | [10] 86.1 µM | [11] 79.6 µM | [12] 39.2 µM | [13] 70.8 µM | [14] 28 µM | [17] 63.4 µM | [15] > 100 µM

N#C/C(=C1\SC(C(N)=O)=C(N)N1c1ccccc1)c1nc2ccccc2[nH]1
inactive: [1] 39.5 µM | [2] > 100 µM | [3] > 100 µM | [4] > 100 µM | [5] 99.1 µM | [6] > 100 µM | [16] > 100 µM | [7] > 100 µM | [8] > 100 µM | [9] > 100 µM | [10] 82.8 µM | [11] > 100 µM | [12] > 100 µM | [14] > 100 µM | [17] > 100 µM | [15] > 100 µM

O=c1c(C(c2ccc([N+](=O)[O-])cc2)c2c(O)c3ccccc3n(-c3ccccc3)c2=O)c(O)c2ccccc2n1-c1ccccc1
inactive: [1] 9.18 µM | [2] 3.76 µM | [3] 59.7 µM | [5] 8.51 µM | [6] 7.38 µM | [16] 16.6 µM | [7] 24.5 µM | [8] 14.5 µM | [9] 15.3 µM | [11] 15.5 µM | [12] 11.4 µM | [13] 12.2 µM | [14] 12.5 µM | [15] 22.9 µM

NC(=O)C(=O)C1C(=O)N(c2ccccc2)N=C1N (configuration not stated)
inactive: [1] > 100 µM | [2] > 100 µM | [3] > 100 µM | [4] > 100 µM | [5] > 100 µM | [6] > 100 µM | [16] > 100 µM | [8] > 100 µM | [9] > 100 µM | [10] > 100 µM | [11] > 100 µM | [13] > 100 µM | [14] > 100 µM | [17] > 100 µM | [15] > 100 µM

CC(C)C(C(=O)O)N(CC1(O)OCC(O)C(O)C1O)N=O (configuration not stated)
inactive: [1] > 100 µM | [2] > 100 µM | [4] > 100 µM | [5] > 100 µM | [6] > 100 µM | [16] > 100 µM | [7] > 100 µM | [8] > 100 µM | [10] > 100 µM | [11] > 100 µM | [12] > 100 µM | [13] > 100 µM | [17] > 100 µM | [15] > 100 µM

CN(C)CC1(C)CC/C(=C\c2ccc3c(c2)OCO3)C1=O (configuration not stated)
inactive: [1] > 100 µM | [2] 67.3 µM | [3] > 100 µM | [4] > 100 µM | [5] > 100 µM | [16] 53.6 µM | [8] > 100 µM | [9] > 100 µM | [10] > 100 µM | [11] > 100 µM | [12] > 100 µM | [13] 27.5 µM | [14] > 100 µM | [15] > 100 µM

Clc1ccc2c(c1)-c1c3c(nn1-c1ccccc1)-c1ccccc1SC3O2 (configuration not stated)
inactive: [1] 35.7 µM | [4] > 100 µM | [5] > 100 µM | [6] > 100 µM | [16] 75.3 µM | [7] > 100 µM | [8] > 100 µM | [9] > 100 µM | [10] > 100 µM | [11] > 100 µM | [12] > 100 µM | [13] > 100 µM | [14] > 100 µM | [17] 79.4 µM | [15] > 100 µM

NC(N)=NN/C(=C1/N=c2ccc([N+](=O)[O-])cc2=NC1=O)C(O)c1ccco1 (configuration not stated)
inactive: [1] > 100 µM | [2] > 100 µM | [3] > 100 µM | [4] > 100 µM | [5] 64.7 µM | [6] > 100 µM | [16] 54.3 µM | [7] > 100 µM | [8] > 100 µM | [9] > 100 µM | [10] > 100 µM | [11] > 100 µM | [12] > 100 µM | [13] 43.7 µM | [14] > 100 µM | [17] 35.9 µM | [15] > 100 µM
